{"source": "paper PMC5722318", "about": "“Absence of anti-hypocretin receptor 2 autoantibodies in post pandemrix narcolepsy cases” (PLoS ONE, 2017)", "tested_on": "DQ0602", "type": "binding, human", "settings": "for % Read #1 / Read #1: replicate 1; for % Average: mean of two reads; for % Read #2 / Read #2: replicate 2; for Average: mean of the two raw reads; for Read #1 / Read #2: raw signal read", "key": {"[1]": {"settings": "% of Bio-EBV binding, first assay (02/04/2016, 07/15/2016 or 08/11/2016, by peptide)"}, "[2]": {"settings": "% of Bio-EBV binding, repeat assay (07/19/2016, 07/18/2016 or 08/12/2016, by peptide)"}, "[3]": {"settings": "first assay (02/04/2016, 07/15/2016 or 08/11/2016, by peptide)"}, "[4]": {"settings": "repeat assay (07/19/2016, 07/18/2016 or 08/12/2016, by peptide)"}}, "note": "Read-outs that look alike come from different tables or passages of the source."}
{"sequence": "HDSDKGVTAACPH [HA143-155 146D, synthetic 13-mer hemagglutinin peptide containing mutated 146D]", "values": [{"measurement": "Average (two assays)", "value": 86.9741, "unit": "%"}, {"measurement": "% Read #1", "setting": "% of Bio-EBV binding (Bio-EBV average = 100), first assay (02/04/2016, 07/15/2016 or 08/11/2016, by peptide)", "value": 75.8456, "unit": "%"}, {"measurement": "% Average", "setting": "[1]", "value": 83.2638, "unit": "%"}, {"measurement": "% Average", "setting": "[2]", "value": 90.6844, "unit": "%"}, {"measurement": "% Read #1", "setting": "[2]", "value": 90.6154, "unit": "%"}, {"measurement": "% Read #2", "setting": "[1]", "value": 90.682, "unit": "%"}, {"measurement": "% Read #2", "setting": "[2]", "value": 90.7533, "unit": "%"}, {"measurement": "Average", "setting": "[3]", "value": 15669}, {"measurement": "Average", "setting": "[4]", "value": 15132.5}, {"measurement": "Read #1", "setting": "first assay (02/04/2016, 07/15/2016 or 08/11/2016, by peptide), competition against Bio-EBV epitope", "value": 14273}, {"measurement": "Read #1", "setting": "[4]", "value": 15121}, {"measurement": "Read #2", "setting": "[3]", "value": 17065}, {"measurement": "Read #2", "setting": "[4]", "value": 15144}]}
